{"source": "patent US20260013501A1", "about": "“HERBICIDAL DERIVATIVES” (SYNGENTA CROP PROTECTION AG, priority 2022, published 2026)", "format_in_all_cases": "in vivo", "conditions_in_all_cases": "evaluated after 13 days", "key": {"[1]": {"tested_on": "Zea mays (ZEAMX)", "test": "Post-emergence Test (Table B2), ZEAMX", "parameters": "key: 5-point damage scale: 5=81-100%, 4=61-80%, 3=41-60%, 2=21-40%, 1=0-20%", "description": "Seeds of a variety of test species are sown in standard soil in pots (Ipomoea hederacea (IPOHE), Zea mays (ZEAMX), Echinochloa crus-galli (ECHCG), Amaranthus palmeri (AMAPA), (Amaranthus retoflexus (AMARE), and (Setaria faberi (SETFA)). After 8 days cultivation under controlled conditions in a glasshouse (at 24° C./16° C., day/night; 14 hours light; 65% humidity), the plants are sprayed with an aqueous spray solution derived from the formulation of the technical active ingredient in acetone/water (50:50) solution containing 0.5% Tween 20 (polyoxyethelyene sorbitan monolaurate, CAS RN 9005-64-5). Rate of application is shown in g/ha in the tables below. The test plants are then grown in a glasshouse under controlled conditions in a glasshouse (at 24° C./16° C., day/night; 14 hours light; 65% humidity) and watered twice daily. After 13 days the test is evaluated for the percentage damage caused to the plant. The biological activities are shown in the following table on a five-point scale (5=81-100%; 4=61-80%; 3=41-60%; 2=21-40%; 1=0-20%; -=not tested)."}, "[2]": {"tested_on": "Amaranthus palmeri (AMAPA)", "test": "Pre-emergence Test (Table B1), AMAPA"}, "[3]": {"tested_on": "Amaranthus retoflexus (AMARE)", "test": "Pre-emergence Test (Table B1), AMARE"}, "[4]": {"tested_on": "Zea mays (ZEAMX)", "test": "Pre-emergence Test (Table B1), ZEAMX"}}, "data": [{"compound": "CCn1c(Cc2cccc(Cl)c2)cc(=O)c(C(=O)O)c1-c1ccc(Cl)c(Cl)c1", "note": "[Compound 1, 6-[(3-chlorophenyl)methyl]-2-(3,4-dichlorophenyl)-1-ethyl-4-oxo-pyridine-3-carboxylic acid]", "values": [{"measurement": "percentage damage caused to the plant, ZEAMX", "setting": "[1]; rate 1000 g/Ha", "value": 0}]}, {"compound": "CCn1c(Cc2ncc(Cl)cn2)cc(=O)c(C(=O)O)c1-c1ccc(Cl)c(Cl)c1", "note": "[Compound 4, 6-[(5-chloropyrimidin-2-yl)methyl]-2-(3,4-dichlorophenyl)-1-ethyl-4-oxo-pyridine-3-carboxylic acid]", "values": [{"measurement": "Pre-emergence Test, percentage damage caused to the plant (five-point scale), AMAPA", "setting": "[2]; Rate 1000 g/Ha", "value": 0}]}, {"compound": "CCn1c(Cc2ccc(F)cc2)cc(=O)c(C(=O)O)c1-c1ccc(Cl)c(Cl)c1", "note": "[Compound 12, 2-(3,4-dichlorophenyl)-1-ethyl-6-[(4-fluorophenyl)methyl]-4-oxo-pyridine-3-carboxylic acid]", "values": [{"measurement": "percentage damage caused to the plant, ZEAMX", "setting": "[1]; rate 1000 g/Ha", "value": 0}, {"measurement": "Pre-emergence Test, percentage damage caused to the plant (five-point scale), AMARE", "setting": "[3]; Rate 1000 g/Ha", "value": 0}]}, {"compound": "CCn1c(Cc2nccs2)cc(=O)c(C(=O)O)c1-c1ccc(Cl)c(Cl)c1", "note": "[Compound 19, 2-(3,4-dichlorophenyl)-1-ethyl-4-oxo-6-(thiazol-2-ylmethyl)pyridine-3-carboxylic acid]", "values": [{"measurement": "Pre-emergence Test, percentage damage caused to the plant (five-point scale), AMAPA", "setting": "[2]; Rate 1000 g/Ha", "value": 0}, {"measurement": "Pre-emergence Test, percentage damage caused to the plant (five-point scale), AMARE", "setting": "[3]; Rate 1000 g/Ha", "value": 0}]}, {"compound": "CCn1c(Cc2cccc(OC(F)(F)F)c2)cc(=O)c(C(=O)O)c1-c1ccc(Cl)c(Cl)c1", "note": "[Compound 30, 2-(3,4-dichlorophenyl)-1-ethyl-4-oxo-6-[[3-(trifluoromethoxy)phenyl]methyl]pyridine-3-carboxylic acid]", "values": [{"measurement": "percentage damage caused to the plant, ZEAMX", "setting": "[1]; rate 1000 g/Ha", "value": 0}]}, {"compound": "CCn1c(Cc2cccc(C(F)(F)F)n2)cc(=O)c(C(=O)O)c1-c1ccc(Cl)c(Cl)c1", "note": "[Compound 39, 2-(3,4-dichlorophenyl)-1-ethyl-4-oxo-6-[[6-(trifluoromethyl)-2-pyridyl]methyl]pyridine-3-carboxylic acid]", "values": [{"measurement": "Pre-emergence Test, percentage damage caused to the plant (five-point scale), AMAPA", "setting": "[2]; Rate 1000 g/Ha", "value": 0}]}, {"compound": "CCn1c(Cc2ccnc(F)c2)cc(=O)c(C(=O)O)c1-c1ccc(Cl)c(Cl)c1", "note": "[Compound 44, 2-(3,4-dichlorophenyl)-1-ethyl-6-[(2-fluoro-4-pyridyl)methyl]-4-oxo-pyridine-3-carboxylic acid]", "values": [{"measurement": "Pre-emergence Test, percentage damage caused to the plant (five-point scale), ZEAMX", "setting": "[4]; Rate 250 g/Ha", "value": 0}]}, {"compound": "CCn1c(Cc2ccn(C3CC3)n2)cc(=O)c(C(=O)O)c1-c1ccc(Cl)c(Cl)c1", "note": "[Compound 54, 6-[(1-cyclopropylpyrazol-3-yl)methyl]-2-(3,4-dichlorophenyl)-1-ethyl-4-oxo-pyridine-3-carboxylic acid]", "values": [{"measurement": "Pre-emergence Test, percentage damage caused to the plant (five-point scale), AMAPA", "setting": "[2]; Rate 1000 g/Ha", "value": 0}, {"measurement": "Pre-emergence Test, percentage damage caused to the plant (five-point scale), AMARE", "setting": "[3]; Rate 1000 g/Ha", "value": 0}]}, {"compound": "CCn1c(Cc2cccc(C#N)n2)cc(=O)c(C(=O)O)c1-c1ccc(Cl)c(Cl)c1", "note": "[Compound 57, 6-[(6-cyano-2-pyridyl)methyl]-2-(3,4-dichlorophenyl)-1-ethyl-4-oxo-pyridine-3-carboxylic acid]", "values": [{"measurement": "percentage damage caused to the plant, ZEAMX", "setting": "[1]; rate 1000 g/Ha", "value": 0}]}, {"compound": "CCn1c(Cc2ccc(OC)cc2C(F)(F)F)cc(=O)c(C(=O)O)c1-c1ccc(Cl)c(Cl)c1", "note": "[Compound 65, 2-(3,4-dichlorophenyl)-1-ethyl-6-[[4-methoxy-2-(trifluoromethyl)phenyl]methyl]-4-oxo-pyridine-3-carboxylic acid]", "values": [{"measurement": "Pre-emergence Test, percentage damage caused to the plant (five-point scale), ZEAMX", "setting": "[4]; Rate 1000 g/Ha", "value": 0}]}, {"compound": "CCn1c(Cc2ccc(F)c(OC)c2)cc(=O)c(C(=O)O)c1-c1ccc(Cl)c(Cl)c1", "note": "[Compound 95, 2-(3,4-dichlorophenyl)-1-ethyl-6-[(4-fluoro-3-methoxy-phenyl)methyl]-4-oxo-pyridine-3-carboxylic acid]", "values": [{"measurement": "Pre-emergence Test, percentage damage caused to the plant (five-point scale), AMAPA", "setting": "[2]; Rate 1000 g/Ha", "value": 0}, {"measurement": "Pre-emergence Test, percentage damage caused to the plant (five-point scale), ZEAMX", "setting": "[4]; Rate 1000 g/Ha", "value": 0}, {"measurement": "Pre-emergence Test, percentage damage caused to the plant (five-point scale), AMARE", "setting": "[3]; Rate 1000 g/Ha", "value": 0}]}, {"compound": "CCn1c(Cc2ccc(C)c(Cl)n2)cc(=O)c(C(=O)O)c1-c1ccc(Cl)c(Cl)c1", "note": "[Compound 97, 6-[(6-chloro-5-methyl-2-pyridiyl)methyl]-2-(3,4-dichlorophenyl)-1-ethyl-4-oxo-pyridine-3-carboxylic acid]", "values": [{"measurement": "Pre-emergence Test, percentage damage caused to the plant (five-point scale), AMAPA", "setting": "[2]; Rate 1000 g/Ha", "value": 0}, {"measurement": "Pre-emergence Test, percentage damage caused to the plant (five-point scale), AMARE", "setting": "[3]; Rate 1000 g/Ha", "value": 0}]}, {"compound": "CCn1c(Cc2nc(Cl)ccc2COC)cc(=O)c(C(=O)O)c1-c1ccc(Cl)c(Cl)c1", "note": "[Compound 105, 6-[[6-chloro-3-(methoxymethyl)-2-pyridyl]methyl]-2-(3,4-dichlorophenyl)-1-ethyl-4-oxo-pyridine-3-carboxylic acid]", "values": [{"measurement": "Pre-emergence Test, percentage damage caused to the plant (five-point scale), AMAPA", "setting": "[2]; Rate 250 g/Ha", "value": 0}, {"measurement": "Pre-emergence Test, percentage damage caused to the plant (five-point scale), AMARE", "setting": "[3]; Rate 250 g/Ha", "value": 0}]}, {"compound": "CCn1c(Cc2ccc(C(F)F)nn2)cc(=O)c(C(=O)O)c1-c1ccc(Cl)c(Cl)c1", "note": "[Compound 108, 2-(3,4-dichlorophenyl)-6-[[6-(difluoromethyl)-pyridazin-3-yl]methyl]-1-ethyl-4-oxo-pyridine-3-carboxylic acid]", "values": [{"measurement": "Pre-emergence Test, percentage damage caused to the plant (five-point scale), AMAPA", "setting": "[2]; Rate 1000 g/Ha", "value": 0}, {"measurement": "Pre-emergence Test, percentage damage caused to the plant (five-point scale), ZEAMX", "setting": "[4]; Rate 1000 g/Ha", "value": 0}, {"measurement": "Pre-emergence Test, percentage damage caused to the plant (five-point scale), AMARE", "setting": "[3]; Rate 1000 g/Ha", "value": 0}]}, {"compound": "CCn1c(Cc2cc(C(F)F)ccn2)cc(=O)c(C(=O)O)c1-c1ccc(Cl)c(Cl)c1", "note": "[Compound 115, 2-(3,4-dichlorophenyl)-6-[[4-(difluoromethyl)-2-pyridyl]methyl]-1-ethyl-4-oxo-pyridine-3-carboxylic acid]", "values": [{"measurement": "Pre-emergence Test, percentage damage caused to the plant (five-point scale), ZEAMX", "setting": "[4]; Rate 250 g/Ha", "value": 0}]}, {"compound": "CCn1c(Cc2cc(Cl)ccn2)cc(=O)c(C(=O)O)c1-c1ccc(Cl)c(Cl)c1", "note": "[Compound 117, 6-[(4-chloro-2-pyridyl)methyl]-2-(3,4-dichlorophenyl)-1-ethyl-4-oxo-pyridine-3-carboxylic acid]", "values": [{"measurement": "percentage damage caused to the plant, ZEAMX", "setting": "[1]; rate 62.5 g/Ha", "value": 0}, {"measurement": "Pre-emergence Test, percentage damage caused to the plant (five-point scale), ZEAMX", "setting": "[4]; Rate 62.5 g/Ha", "value": 0}]}, {"compound": "CCn1c(Cc2ccn(CC(C)C)n2)cc(=O)c(C(=O)O)c1-c1ccc(Cl)c(Cl)c1", "note": "[Compound 121, 2-(3,4-dichlorophenyl)-1-ethyl-6-[(1-isobutylpyrazol-3-yl)methyl]-4-oxo-pyridine-3-carboxylic acid]", "values": [{"measurement": "Pre-emergence Test, percentage damage caused to the plant (five-point scale), ZEAMX", "setting": "[4]; Rate 250 g/Ha", "value": 0}]}, {"compound": "CCn1c(Cc2ccn(C(F)F)n2)cc(=O)c(C(=O)O)c1-c1ccc(Cl)c(Cl)c1", "note": "[Compound 124, 2-(3,4-dichlorophenyl)-6-[[1-(difluoromethyl)pyrazol-3-yl]methyl]-1-ethyl-4-oxo-pyridine-3-carboxylic acid]", "values": [{"measurement": "Pre-emergence Test, percentage damage caused to the plant (five-point scale), AMAPA", "setting": "[2]; Rate 62.5 g/Ha", "value": 0}, {"measurement": "Pre-emergence Test, percentage damage caused to the plant (five-point scale), ZEAMX", "setting": "[4]; Rate 62.5 g/Ha", "value": 0}, {"measurement": "Pre-emergence Test, percentage damage caused to the plant (five-point scale), AMARE", "setting": "[3]; Rate 62.5 g/Ha", "value": 0}]}, {"compound": "CCn1c(Cc2ccc(Cl)nc2)cc(=O)c(C(=O)O)c1-c1ccc(Cl)c(Cl)c1", "note": "[Compound 129, 6-[(6-chloro-3-pyridyl)methyl]-2-(3,4-dichlorophenyl)-1-ethyl-4-oxo-pyridine-3-carboxylic acid]", "values": [{"measurement": "Pre-emergence Test, percentage damage caused to the plant (five-point scale), AMAPA", "setting": "[2]; Rate 250 g/Ha", "value": 0}, {"measurement": "percentage damage caused to the plant, ZEAMX", "setting": "[1]; rate 250 g/Ha", "value": 0}]}, {"compound": "CCn1c(Cc2ccc(OC)nn2)cc(=O)c(C(=O)O)c1-c1ccc(Cl)c(Cl)c1", "note": "[Compound 133, 2-(3,4-dichlorophenyl)-1-ethyl-6-[(6-methoxypyridazin-3-yl)methyl]-4-oxo-pyridine-3-carboxylic acid]", "values": [{"measurement": "Pre-emergence Test, percentage damage caused to the plant (five-point scale), ZEAMX", "setting": "[4]; Rate 250 g/Ha", "value": 0}]}, {"compound": "CCn1c(Cc2cccc(Br)n2)cc(=O)c(C(=O)O)c1-c1ccc(Cl)c(Cl)c1", "note": "[Compound 138, 6-[(6-bromo-2-pyridyl)methyl]-2-(3,4-dichlorophenyl)-1-ethyl-4-oxo-pyridine-3-carboylic acid]", "values": [{"measurement": "Pre-emergence Test, percentage damage caused to the plant (five-point scale), ZEAMX", "setting": "[4]; Rate 250 g/Ha", "value": 0}]}, {"compound": "CCn1c(Cc2ccnc(C(F)(F)F)n2)cc(=O)c(C(=O)O)c1-c1ccc(Cl)c(Cl)c1", "note": "[Compound 141, 2-(3,4-dichlorophenyl)-1-ethyl-4-oxo-6-[[2-(trifluoromethyl)pyrimidin-4-yl]methyl]pyridine-3-carboxylic acid]", "values": [{"measurement": "Pre-emergence Test, percentage damage caused to the plant (five-point scale), AMAPA", "setting": "[2]; Rate 250 g/Ha", "value": 0}, {"measurement": "Pre-emergence Test, percentage damage caused to the plant (five-point scale), ZEAMX", "setting": "[4]; Rate 250 g/Ha", "value": 0}]}, {"compound": "CCn1c(Cc2cccc(C(C)F)n2)cc(=O)c(C(=O)O)c1-c1ccc(Cl)c(Cl)c1", "note": "(stereo not drawn) [Compound 147, 2-(3,4-dichlorophenyl)-1-ethyl-6-[[6-(1-fluoroethyl)-2-pyridyl]methyl]-4-oxo-pyridine-3-carboxylic acid]", "values": [{"measurement": "Pre-emergence Test, percentage damage caused to the plant (five-point scale), AMAPA", "setting": "[2]; Rate 250 g/Ha", "value": 0}]}, {"compound": "CCn1c(Cc2ccon2)cc(=O)c(C(=O)O)c1-c1ccc(Cl)c(Cl)c1", "note": "[Compound 149, 2-(3,4-dichlorophenyl)-1-ethyl-6-(isoxazol-3-ylmethyl)-4-oxo-pyridine-3-carboxylic acid]", "values": [{"measurement": "percentage damage caused to the plant, ZEAMX", "setting": "[1]; rate 250 g/Ha", "value": 0}, {"measurement": "Pre-emergence Test, percentage damage caused to the plant (five-point scale), ZEAMX", "setting": "[4]; Rate 250 g/Ha", "value": 0}]}]}
